Data as given in patent US7572616B2, “Alternative oxidase and uses thereof” (priority 2005, dated 2009).

Key:
Flp-In™ T-REx™-293 cells [1] = format: cell-based, human
Flp-In™ T-REx™-293 cells [2] = assay: Succinate oxidation by digitonin permeabilized cells, Clark oxygen electrode; format: cell-based, human; settings: AOX-expressing cells, 100 μM propyl gallate added after cyanide
Drosophila mitochondria = assay: Oxygen consumption of isolated mitochondrial suspensions from flies; format: biochemical, Drosophila melanogaster; settings: mitochondria from AOX-expressing flies

In the case of `CCCOC(=O)c1cc(O)c(O)c(O)c1` [n-propyl gallate], the “inhibition of residual cyanide-insensitive respiration” value (Flp-In™ T-REx™-293 cells [1]) is reported as “completely inhibited”, the “inhibition of respiration in the presence of cyanide” value (Flp-In™ T-REx™-293 cells [1]) is reported as “almost completely inhibited” and the “inhibition of cyanide-resistant succinate oxidation” value (Flp-In™ T-REx™-293 cells [2]) is reported as “fully inhibited”. For the same compound, the “sensitivity of residual cyanide-insensitive respiratory activity to AOX inhibitors” value (Drosophila mitochondria; cyanide present) was “sensitive” and the “effect of AOX inhibitors on respiration when cyanide absent” value (Drosophila mitochondria; no cyanide) was “only a small effect”.
